Results published in PMC4279406, “Simultaneous targeting of PI3Kδ and a PI3Kδ-dependent MEK1/2-Erk1/2 pathway for therapy in pediatric B-cell acute lymphoblastic leukemia” (Oncotarget, 2014).

Assays:
[1] = system: human B cell leukemia cells; assay: Proliferation of a panel of human B cell leukemia cells (CCK-8); type: cell-based; settings: 72 h, range over the cell panel, read-out: IC50s, proliferation
Method: Cell viability was assessed using Cell Counting Kit (CCK-8, Dojindo, Japan) following the manufacturer's protocol and OD values were measured with a Spectramax M5 plate reader (Molecular Devices, Sunnyvale, CA)[45].
Figure S3: X-370 inhibited proliferation of human B cell leukemia cells. Cells were seeded in 96 -well plate and treated with serial diluted X-370 for 72 h. cell viability was then assessed by CCK-8 reagent and inhibitory rate was calculated. […]
antiproliferative activity of X-370 against these cells. […]

[2] = system: Raji MEK DD cells; assay: Proliferation of Raji MEK DD cells (CCK-8); type: cell-based, human; settings: 72 h, CCK-8, compared with Raji
Method: Figure 5 Inhibition of Erk1/2 phosphorylation by X-370 contributed to its antiproliferative activity (A-C) X-370 inhibited Erk1/2 phosphorylation via PI3K-PDK1-MEK1/2 cascade but not the PI3K-Gab1 positive feedback loop. (A) Raji and SU-DHL-6 cells were exposed to 1 μM X370 for 3 h and protein fraction from cellular membrane was separated using Native Membrane Protein Extraction Kit and probed. WCL: whole cell lysate. (B) Inhibition of PDK1 or MEK1/2 abrogated Erk1/2 phosphorylation. Cells were treated with pharmacological inhibitors of Raf (AZ 628, PLX4032), MEK1/2 (AZD6244), p90RSK (BI-D1870), PI3Kδ (X-370), PDK1 (BX-912), Akt (MK-2206), mTOR (AZD8055) or mTORC1 (Rapamycin) respectively and indicated proteins were detected. […] Raji cells were treated with 1 μM X370 for 1 h and cell lysates were immunoprecipitated with anti-PDK1 antibody and indicated proteins were detected. […] (E) Raji and Raji MEK DD cells were treated with X-370 for 72 h and cell proliferation was detected by CCK-8 assay. (F) Raji MEK DD cells were treated with X-370 and AZD6244 and cell proliferation was detected by CCK-8 assay. Data were show as mean ± SD of three independent experiments. *: p < 0.05 determined by t-tests at each data point. […]
luciferase. Raji cells expressing MEK DD or luciferase were incubated with 1 μM AZD6244 or DMSO control respectively for 72 h, and then cell viability were assessed by CCK-8 reagent. […]

[3] = target: T1, PI3Kα (Homo sapiens, UniProt P42336); assay: Kinase Profiler lipid kinase IC50; type: biochemical; settings: ATP at Km of the isoform; 10-point half-log dilution from 1000 nM
T1 construct: purchased Millipore (Kinase Profiler Services, United Kingdom)
Method: (§1) Figure 1 Structure of X-370 and its inhibitory activity against lipid kinases (A) Chemical structure of X-370. (B) X-370 docked to the crystal structure of PI3Kδ. The model was generated based on the co-crystal structure of PI3Kδ and ZSTK474 (PDB ID: 2WXL). (C) IC50 of X-370 against PI3Kδ increased along with ATP concentration. […] Data was obtained from Kinase Profiler Services (Millipore, United Kingdom). Briefly, X-370 was solved in DMSO at a concentration of 10 mM, 10-point kinase inhibitory activity was measured over concentrations in a half-log dilution series started at 1000 nM with ATP at a concentration consistent with Km of each isoform of class I PI3K and IC50s were calculated. Relative kinase activity in the presence of 10 μM X-370 compared to DMSO control was measured for the rest of lipid kinases. TEXT PRINTED IN THE PICTURE: (D) X-370: IC50 (nM): 7 (Isoform: PI3Kδ); IC50 (nM): 433 (Isoform: PI3Kα); IC50 (nM): >1,000 (Isoform: PI3Kγ); IC50 (nM): >1,000 (Isoform: PI3Kβ); Relative Activity (%) X-370 (10 μM): 55 (Lipid Kinases: PI3KC2α); Relative Activity (%) X-370 (10 μM): 63 (Lipid Kinases: PI3KC2γ); Relative Activity (%) X-370 (10 μM): 105 (Lipid Kinases: PIP4K2α); Relative Activity (%) X-370 (10 μM): 100 (Lipid Kinases: PIP5K1α); Relative Activity (%) X-370 (10 μM): 103 (Lipid Kinases: PIP5K1γ) DOUBTS OF THE COPYIST ABOUT THIS PICTURE: Panel D, left table (Isoform / IC50): no substance label is printed in this table; assigned to X-370, the only label printed in the panel (head of the right table)
(§2) In vitro kinase profile assays were analyzed by the Kinase Profiler Service (Millipore, United Kingdom) following its guidelines. A GST-tagged human p110δ and regulatory full-length p85 were co-expressed in insect cell Sf9. Recombinant protein was extracted by affinity purification. The PI3K kinase activity was determined in the increasing concentration of ATP and X-370 with PI3-Kinase HTRF™ Assay kit (Millipore) as described previously.

[4] = target: T2, PI3Kγ (Homo sapiens, UniProt P48736); assay: Kinase Profiler lipid kinase IC50; type: biochemical; settings: ATP at Km of the isoform; 10-point half-log dilution from 1000 nM
T2 construct: purchased Millipore (Kinase Profiler Services, United Kingdom)
Method: as §1, §2

[5] = target: T3, PI3Kβ (Homo sapiens, UniProt P42338); assay: Kinase Profiler lipid kinase IC50; type: biochemical; settings: ATP at Km of the isoform; 10-point half-log dilution from 1000 nM
T3 construct: purchased Millipore (Kinase Profiler Services, United Kingdom)
Method: as §1, §2

[6] = target: T4, PIP5K1γ (Homo sapiens, UniProt O60331); assay: Kinase Profiler lipid kinase relative activity; type: biochemical; settings: X-370 10 μM, compared to DMSO control
T4 construct: purchased Millipore (Kinase Profiler Services, United Kingdom)
Method: as §1, §2

[7] = target: T5, PI3KC2γ (Homo sapiens, UniProt O75747); assay: Kinase Profiler lipid kinase relative activity; type: biochemical; settings: X-370 10 μM, compared to DMSO control
T5 construct: purchased Millipore (Kinase Profiler Services, United Kingdom)
Method: as §1, §2

[8] = target: T6, PI3KC2α (Homo sapiens, UniProt O00443); assay: Kinase Profiler lipid kinase relative activity; type: biochemical; settings: X-370 10 μM, compared to DMSO control
T6 construct: purchased Millipore (Kinase Profiler Services, United Kingdom)
Method: as §1, §2

[9] = target: T7, PIP4K2α (Homo sapiens, UniProt P48426); assay: Kinase Profiler lipid kinase relative activity; type: biochemical; settings: X-370 10 μM, compared to DMSO control
T7 construct: purchased Millipore (Kinase Profiler Services, United Kingdom)
Method: as §1, §2

[10] = target: T8, PIP5K1α (Homo sapiens, UniProt Q99755); assay: Kinase Profiler lipid kinase relative activity; type: biochemical; settings: X-370 10 μM, compared to DMSO control
T8 construct: purchased Millipore (Kinase Profiler Services, United Kingdom)
Method: as §1, §2

T8 sequence (Q99755 whole entry, species assumed): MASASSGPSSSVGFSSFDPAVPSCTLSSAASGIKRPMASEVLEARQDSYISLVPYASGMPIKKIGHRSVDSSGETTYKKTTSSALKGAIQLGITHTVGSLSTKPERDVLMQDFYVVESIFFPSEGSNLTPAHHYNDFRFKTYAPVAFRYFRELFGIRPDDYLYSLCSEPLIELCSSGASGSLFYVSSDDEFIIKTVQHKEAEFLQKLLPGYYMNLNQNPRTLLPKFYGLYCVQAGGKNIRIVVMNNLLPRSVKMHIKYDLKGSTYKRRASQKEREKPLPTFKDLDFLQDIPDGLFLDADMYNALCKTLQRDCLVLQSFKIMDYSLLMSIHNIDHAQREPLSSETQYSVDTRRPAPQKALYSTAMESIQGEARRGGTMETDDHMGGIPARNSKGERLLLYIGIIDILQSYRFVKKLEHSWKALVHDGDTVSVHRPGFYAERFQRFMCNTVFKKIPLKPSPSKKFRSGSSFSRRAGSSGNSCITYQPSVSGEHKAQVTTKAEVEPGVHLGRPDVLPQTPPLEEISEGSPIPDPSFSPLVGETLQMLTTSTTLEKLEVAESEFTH
T5 sequence (O75747 whole entry, species assumed): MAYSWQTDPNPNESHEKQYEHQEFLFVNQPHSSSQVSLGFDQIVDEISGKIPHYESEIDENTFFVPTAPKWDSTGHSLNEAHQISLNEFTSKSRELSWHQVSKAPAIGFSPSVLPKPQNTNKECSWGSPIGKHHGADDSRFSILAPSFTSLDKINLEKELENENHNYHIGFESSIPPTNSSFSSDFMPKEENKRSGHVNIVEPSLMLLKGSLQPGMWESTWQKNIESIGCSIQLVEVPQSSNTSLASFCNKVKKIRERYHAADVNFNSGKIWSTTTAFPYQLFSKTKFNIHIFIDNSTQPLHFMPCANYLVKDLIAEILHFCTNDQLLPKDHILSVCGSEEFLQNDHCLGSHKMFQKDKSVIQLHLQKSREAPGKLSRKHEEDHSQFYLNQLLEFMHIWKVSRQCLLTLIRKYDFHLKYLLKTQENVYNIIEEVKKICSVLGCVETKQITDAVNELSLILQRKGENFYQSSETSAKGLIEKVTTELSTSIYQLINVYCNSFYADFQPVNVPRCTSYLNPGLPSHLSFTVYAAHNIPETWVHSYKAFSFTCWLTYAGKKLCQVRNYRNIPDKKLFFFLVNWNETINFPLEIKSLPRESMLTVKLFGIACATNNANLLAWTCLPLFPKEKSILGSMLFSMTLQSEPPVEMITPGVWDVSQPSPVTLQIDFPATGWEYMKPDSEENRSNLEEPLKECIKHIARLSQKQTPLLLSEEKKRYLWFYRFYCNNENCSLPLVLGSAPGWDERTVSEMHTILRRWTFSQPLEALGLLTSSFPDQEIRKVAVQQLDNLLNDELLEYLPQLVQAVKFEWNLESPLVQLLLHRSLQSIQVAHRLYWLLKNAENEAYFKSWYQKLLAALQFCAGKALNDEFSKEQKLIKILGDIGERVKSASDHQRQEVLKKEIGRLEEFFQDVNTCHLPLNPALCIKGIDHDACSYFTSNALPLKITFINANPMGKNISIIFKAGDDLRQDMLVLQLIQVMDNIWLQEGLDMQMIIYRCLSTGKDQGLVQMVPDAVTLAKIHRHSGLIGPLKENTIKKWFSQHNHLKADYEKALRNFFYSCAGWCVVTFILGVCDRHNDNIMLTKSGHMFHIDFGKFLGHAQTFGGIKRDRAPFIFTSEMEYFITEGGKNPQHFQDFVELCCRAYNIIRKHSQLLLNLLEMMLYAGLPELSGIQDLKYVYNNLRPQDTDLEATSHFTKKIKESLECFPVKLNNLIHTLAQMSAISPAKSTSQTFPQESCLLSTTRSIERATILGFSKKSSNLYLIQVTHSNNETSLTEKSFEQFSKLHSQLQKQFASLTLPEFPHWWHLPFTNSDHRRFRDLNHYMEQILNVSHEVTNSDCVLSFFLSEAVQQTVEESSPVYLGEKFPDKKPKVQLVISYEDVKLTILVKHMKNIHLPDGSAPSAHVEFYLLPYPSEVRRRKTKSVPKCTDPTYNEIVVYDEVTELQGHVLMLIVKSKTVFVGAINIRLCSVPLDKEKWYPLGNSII
T3 sequence (P42338 whole entry, canonical isoform): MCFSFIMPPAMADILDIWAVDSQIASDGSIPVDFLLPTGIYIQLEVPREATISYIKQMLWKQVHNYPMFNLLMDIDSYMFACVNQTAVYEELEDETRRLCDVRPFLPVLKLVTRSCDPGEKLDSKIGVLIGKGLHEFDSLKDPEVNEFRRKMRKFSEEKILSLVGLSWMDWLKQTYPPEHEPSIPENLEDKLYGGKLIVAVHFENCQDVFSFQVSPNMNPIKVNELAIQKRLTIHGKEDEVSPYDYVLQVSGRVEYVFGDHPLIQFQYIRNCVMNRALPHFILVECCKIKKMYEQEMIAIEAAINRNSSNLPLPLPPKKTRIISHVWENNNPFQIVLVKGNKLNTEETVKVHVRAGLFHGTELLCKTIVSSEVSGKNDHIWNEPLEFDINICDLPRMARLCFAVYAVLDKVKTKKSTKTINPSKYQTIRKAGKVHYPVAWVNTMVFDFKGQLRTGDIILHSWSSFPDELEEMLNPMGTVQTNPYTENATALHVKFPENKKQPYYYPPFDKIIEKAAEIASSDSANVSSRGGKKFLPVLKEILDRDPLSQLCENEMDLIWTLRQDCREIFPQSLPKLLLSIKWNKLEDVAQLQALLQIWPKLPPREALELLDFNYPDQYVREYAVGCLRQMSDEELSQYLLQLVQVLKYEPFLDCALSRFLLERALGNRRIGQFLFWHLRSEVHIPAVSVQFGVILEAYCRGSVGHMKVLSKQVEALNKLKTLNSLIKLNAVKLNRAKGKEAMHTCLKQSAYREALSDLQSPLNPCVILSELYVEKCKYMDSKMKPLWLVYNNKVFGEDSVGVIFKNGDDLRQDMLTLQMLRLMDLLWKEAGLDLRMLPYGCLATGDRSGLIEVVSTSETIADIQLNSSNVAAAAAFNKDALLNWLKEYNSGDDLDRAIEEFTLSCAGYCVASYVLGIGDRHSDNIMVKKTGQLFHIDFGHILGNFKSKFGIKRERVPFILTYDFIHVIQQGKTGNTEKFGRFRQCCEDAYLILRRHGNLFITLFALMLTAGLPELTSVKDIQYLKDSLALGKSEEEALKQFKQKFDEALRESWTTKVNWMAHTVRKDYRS
T3 sequence (P27986 whole entry partner, canonical isoform): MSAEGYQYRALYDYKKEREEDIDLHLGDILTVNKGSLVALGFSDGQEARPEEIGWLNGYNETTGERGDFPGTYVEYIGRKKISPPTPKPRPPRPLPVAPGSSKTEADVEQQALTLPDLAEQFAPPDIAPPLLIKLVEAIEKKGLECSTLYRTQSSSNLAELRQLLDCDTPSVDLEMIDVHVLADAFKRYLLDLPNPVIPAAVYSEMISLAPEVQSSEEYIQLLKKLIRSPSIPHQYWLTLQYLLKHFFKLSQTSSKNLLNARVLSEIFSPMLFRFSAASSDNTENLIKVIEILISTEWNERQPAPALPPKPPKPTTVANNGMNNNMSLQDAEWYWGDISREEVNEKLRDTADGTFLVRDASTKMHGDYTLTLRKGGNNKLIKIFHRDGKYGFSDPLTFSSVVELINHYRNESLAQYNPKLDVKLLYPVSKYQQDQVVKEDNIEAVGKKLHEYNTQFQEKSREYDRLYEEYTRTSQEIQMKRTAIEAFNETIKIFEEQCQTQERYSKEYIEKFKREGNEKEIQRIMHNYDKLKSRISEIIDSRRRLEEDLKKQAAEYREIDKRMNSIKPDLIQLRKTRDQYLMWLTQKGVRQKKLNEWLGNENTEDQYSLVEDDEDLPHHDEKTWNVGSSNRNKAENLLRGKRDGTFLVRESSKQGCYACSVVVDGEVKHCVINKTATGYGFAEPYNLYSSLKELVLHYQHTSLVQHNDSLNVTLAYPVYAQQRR
T4 sequence (O60331 whole entry, species assumed): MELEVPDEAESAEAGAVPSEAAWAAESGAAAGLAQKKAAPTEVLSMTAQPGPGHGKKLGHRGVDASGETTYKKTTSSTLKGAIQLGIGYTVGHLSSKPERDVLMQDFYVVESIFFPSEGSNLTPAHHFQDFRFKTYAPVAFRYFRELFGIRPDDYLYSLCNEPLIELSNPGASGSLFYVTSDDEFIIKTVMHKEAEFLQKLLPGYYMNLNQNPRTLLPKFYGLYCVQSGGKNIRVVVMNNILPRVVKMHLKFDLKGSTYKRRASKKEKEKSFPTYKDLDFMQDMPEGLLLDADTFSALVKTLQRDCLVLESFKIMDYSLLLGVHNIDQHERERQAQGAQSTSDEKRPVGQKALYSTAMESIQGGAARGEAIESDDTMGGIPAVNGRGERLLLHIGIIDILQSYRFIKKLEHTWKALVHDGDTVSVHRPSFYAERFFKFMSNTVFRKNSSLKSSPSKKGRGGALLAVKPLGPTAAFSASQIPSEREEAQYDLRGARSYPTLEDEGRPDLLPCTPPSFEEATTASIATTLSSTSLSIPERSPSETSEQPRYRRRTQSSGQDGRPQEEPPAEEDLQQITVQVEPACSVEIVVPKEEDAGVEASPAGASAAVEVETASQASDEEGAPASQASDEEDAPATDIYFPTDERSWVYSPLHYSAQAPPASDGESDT
T7 sequence (P48426 whole entry): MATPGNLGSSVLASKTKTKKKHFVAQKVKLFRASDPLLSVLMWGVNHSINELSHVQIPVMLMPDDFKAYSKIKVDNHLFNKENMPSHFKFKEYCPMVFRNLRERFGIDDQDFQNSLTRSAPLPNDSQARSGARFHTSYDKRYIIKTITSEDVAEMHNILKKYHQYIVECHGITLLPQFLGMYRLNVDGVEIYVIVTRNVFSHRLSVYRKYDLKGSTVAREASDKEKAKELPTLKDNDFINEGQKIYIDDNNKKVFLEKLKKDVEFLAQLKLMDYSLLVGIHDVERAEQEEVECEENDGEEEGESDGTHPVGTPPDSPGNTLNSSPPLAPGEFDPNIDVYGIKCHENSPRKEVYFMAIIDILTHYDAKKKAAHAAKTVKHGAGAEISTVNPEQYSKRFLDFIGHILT

SMILES: O=C(N1CCCC1)N1CCC(n2cnc3c(-n4c(C(F)F)nc5ccccc54)nc(N4CCOCC4)nc32)CC1 [X-370]
- IC50 [1]: 0.04 to 6.3 µM
- effect of MEK DD expression on inhibition of viability [2]: attenuated inhibition of viability
- IC50 [3]: 0.433 µM
- IC50 [4]: > 1 µM
- IC50 [5]: > 1 µM
- activity at 10 µM [6]: 103%
- activity at 10 µM [7]: 63%
- activity at 10 µM [8]: 55%
- activity at 10 µM [9]: 105%
- activity at 10 µM [10]: 100%
